Reference: article PMC9928118, “Funneling modulatory peptide design with generative models: Discovery and characterization of disruptors of calcineurin protein-protein interactions” (PLOS Computational Biology, 2023)
One block for each sequence: values may come before it.

Test system: GST-tagged Cn
Assay: PEPperPRINT peptide microarray binding assay with GST-tagged Cn
Procedure, shortened: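 Qualitative binding: peptides printed on a PEPperPRINT microarray were incubated overnight at 4 °C with 1 mg/ml GST-tagged Cn, then detected with Alexa-Fluor 647 anti-GST antibody. Log fluorescence was baseline-corrected, averaged over duplicate spots, Z-normalized and averaged across five repeats.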

[1] = GST-tagged Cn, max over the spots named in Location on chip
[2] = GST-tagged Cn, mean over the spots named in Location on chip
[3] = max over the chip locations listed for the peptide (two spots)
[4] = mean over the chip locations listed for the peptide (two spots)
[5] = GST-tagged Cn, max over the spots on the chip (two locations)
[6] = GST-tagged Cn, mean over the spots on the chip (two locations)
[7] = GST-tagged Cn, max over the chip spots listed under Location on chip
[8] = GST-tagged Cn, mean over the chip spots listed under Location on chip
[9] = GST-tagged Cn, max over the chip locations
[10] = GST-tagged Cn, mean over the chip locations
[11] = max over the spots listed under Location on chip
[12] = mean over the spots listed under Location on chip

Sequence: TFWTNPQYRITLDSSD [SeqRBMlowT_972]
Chip Fluorescence (max) [1]: 1.828 | Chip Fluorescence (mean) [2]: -0.3429

Sequence: SSRSSSRPARSPERKP [SeqRGA2_Fusarium_oxysporum]
Chip Fluorescence (max) [3]: 4.629 | Chip Fluorescence (mean) [4]: 0.8375

Sequence: STSSLPTFSFSSPKPQ [SeqRBMlowT_8920]
Chip Fluorescence (max) [5]: 1.216 | Chip Fluorescence (mean) [6]: -1.018

Sequence: KRMEPIAIIITDTEIS [SeqAKAP79_Pan_troglodytes]
Chip Fluorescence (max) [3]: 24.574 | Chip Fluorescence (mean) [4]: 3.689

Sequence: LKDEFPDVRLHIISKL [SeqRCN1_Arthroderma_otae]
Chip Fluorescence (max) [5]: 1.269 | Chip Fluorescence (mean) [6]: 0.6031

Sequence: ADEAQPGIVVHVCELP [SeqRBMlowT_119]
Chip Fluorescence (max) [1]: 1.734 | Chip Fluorescence (mean) [2]: -0.1242

Sequence: PSEDQPGIVVHVCEED [SeqRBMlowT_124]
Chip Fluorescence (max) [3]: 4.395 | Chip Fluorescence (mean) [4]: 0.1564

Sequence: KKMSPPCISVDPPDEL [SeqCACNA1H_Nothobranchius_rachovii]
Chip Fluorescence (max) [5]: 1.26 | Chip Fluorescence (mean) [6]: -0.004401

Sequence: RTLINPSVAFLYMGSR [SeqRBM_5357]
Chip Fluorescence (max) [5]: 1.016 | Chip Fluorescence (mean) [6]: -0.7287

Sequence: TFWTNPQYVITVTDPD [SeqRBMlowT_3207]
Chip Fluorescence (max) [7]: 0.3855 | Chip Fluorescence (mean) [8]: -0.6772

Sequence: TFWTNPQFRIKVEDPD [SeqRBMlowT_6818]
Chip Fluorescence (max) [5]: 1.08 | Chip Fluorescence (mean) [6]: -0.755

Sequence: TFWTNPQYRLNIIDPD [SeqRBMlowT_94]
Chip Fluorescence (max) [5]: 1.251 | Chip Fluorescence (mean) [6]: -0.6992

Sequence: RAMRILKCCPHPAAWN [Seqrandom_9981]
Chip Fluorescence (max) [5]: 1.034 | Chip Fluorescence (mean) [6]: 0.3693

Sequence: RAYINPFMQFIDGGRR [SeqRBMlowT_1520]
Chip Fluorescence (max) [1]: 1.802 | Chip Fluorescence (mean) [2]: -0.3387

Sequence: HVSSSPDIALTPEQHD [SeqRBM_7666]
Chip Fluorescence (max) [9]: 0.08725 | Chip Fluorescence (mean) [10]: -0.9315

Sequence: LSDNRPNVRMEAPMVQ [SeqRBM_9917]
Chip Fluorescence (max) [9]: 0.09814 | Chip Fluorescence (mean) [10]: -0.3526

Sequence: TFWTNPQFKVKLEDVD [SeqRBMlowT_6885]
Chip Fluorescence (max) [1]: 1.498 | Chip Fluorescence (mean) [2]: -0.7469

Sequence: GSPPTPSRSGKPPKPL [SeqRBM_2495]
Chip Fluorescence (max) [11]: 3.396 | Chip Fluorescence (mean) [12]: 0.6955

Sequence: KKMSPPCINIDPAPEN [SeqRBMlowT_2410]
Chip Fluorescence (max) [5]: 1.08 | Chip Fluorescence (mean) [6]: -0.8311

Sequence: SSLECPHVQVTVSGQR [SeqRBM_6881]
Chip Fluorescence (max) [1]: 1.51 | Chip Fluorescence (mean) [2]: 0.9297

Sequence: RNPGTAPLTLKGHKKQ [SeqRBMlowT_6124]
Chip Fluorescence (max) [11]: 2.7668 | Chip Fluorescence (mean) [12]: 0.4787

Sequence: YPPGTPTKQGQQMAPS [SeqRTS1_Aspergillus_carbonarius]
Chip Fluorescence (max) [9]: -0.3471 | Chip Fluorescence (mean) [10]: -1.955

Sequence: PLGTQPGIVVHVCELN [SeqRBMlowT_356]
Chip Fluorescence (max) [3]: 4.334 | Chip Fluorescence (mean) [4]: 3.231

Sequence: NNSESPKIAITTTLGN [SeqRBM_1677]
Chip Fluorescence (max) [1]: 1.504 | Chip Fluorescence (mean) [2]: -0.4285

Sequence: HVSSSPDITLTPTQHR [SeqRBMlowT_782]
Chip Fluorescence (max) [9]: -0.2367 | Chip Fluorescence (mean) [10]: -0.7632

Sequence: SAGAGVQIVITVTEAE [SeqRBMlowT_1437]
Chip Fluorescence (max) [5]: 1.271 | Chip Fluorescence (mean) [6]: -0.4781

Sequence: GPPATPSIVVHPCCCD [SeqRBM_2098]
Chip Fluorescence (max) [5]: 1.034 | Chip Fluorescence (mean) [6]: -0.005812

Sequence: APSKITEVVVHECEVL [SeqRBM_4402]
Chip Fluorescence (max) [1]: 1.576 | Chip Fluorescence (mean) [2]: -0.4054

Sequence: TFWTNPQYKVKLEDPD [SeqRBMlowT_2919]
Chip Fluorescence (max) [7]: 0.9474 | Chip Fluorescence (mean) [8]: 0.1413

Sequence: GAPGTPSRWGTPLAPS [SeqRBM_851]
Chip Fluorescence (max) [1]: 1.622 | Chip Fluorescence (mean) [2]: 0.7552

Sequence: TLWTNPQYHITLPEED [SeqRBM_3002]
Chip Fluorescence (max) [11]: 3.2575 | Chip Fluorescence (mean) [12]: 0.9321

Sequence: ADQELSSFQPFYIEAS [Seqshuffled_9636]
Chip Fluorescence (max) [7]: 0.9604 | Chip Fluorescence (mean) [8]: 0.1044

Sequence: TNSHNPQVDLKIPQVR [SeqRBMlowT_6893]
Chip Fluorescence (max) [3]: 5.271 | Chip Fluorescence (mean) [4]: 0.9753

Sequence: KKMAPPCINIDPAPTN [SeqRBMlowT_309]
Chip Fluorescence (max) [1]: 1.659 | Chip Fluorescence (mean) [2]: -0.3088

Sequence: GGPGTPGRQGQPLAPS [SeqRBMlowT_7795]
Chip Fluorescence (max) [1]: 1.388 | Chip Fluorescence (mean) [2]: -0.6767

Sequence: KGCAAPAISIDFAPIN [SeqRBM_541]
Chip Fluorescence (max) [3]: 6.269 | Chip Fluorescence (mean) [4]: 0.8691

Sequence: ASDDIPTVVIHPPEED [SeqSLC4A7_Pan_troglodytes]
Chip Fluorescence (max) [11]: 2.587 | Chip Fluorescence (mean) [12]: -0.184

Sequence: KKMAPPCINIDFAPTN [SeqRBMlowT_322]
Chip Fluorescence (max) [9]: -0.3563 | Chip Fluorescence (mean) [10]: -3.542

Sequence: TFWTNPQYRLKLLEED [SeqCAPN11_Tupaia_chinensis]
Chip Fluorescence (max) [3]: 4.428 | Chip Fluorescence (mean) [4]: 0.5574

Results, then the sequence that gave them:

Chip Fluorescence (max) [7]: 0.7078 | Chip Fluorescence (mean) [8]: 0.0887
Sequence: KTGMATDMQFNPIEQH [Seqshuffled_2687]

Chip Fluorescence (max) [5]: 1.252 | Chip Fluorescence (mean) [6]: -0.2059
Sequence: KAYMNPYVQFIDGGRR [SeqRBMlowT_9255]

Chip Fluorescence (max) [1]: 1.743 | Chip Fluorescence (mean) [2]: -0.1357
Sequence: MRRERSNRAMFKVNQH [Seqrandom_9977]

Chip Fluorescence (max) [9]: 0.161 | Chip Fluorescence (mean) [10]: -1.962
Sequence: ADEAGPEIVITPTELP [SeqRBMlowT_3142]

Chip Fluorescence (max) [11]: 3.3 | Chip Fluorescence (mean) [12]: 1.547
Sequence: TFWTNPQYRLKVTDPD [SeqRBMlowT_5581]

Chip Fluorescence (max) [9]: 0.1716 | Chip Fluorescence (mean) [10]: -0.4714
Sequence: THTKISSFRGDAEPAP [Seqshuffled_9494]

Chip Fluorescence (max) [5]: 1.124 | Chip Fluorescence (mean) [6]: -0.12
Sequence: LSLKIPEISIQDMTAQ [SeqFLNA_Macaca_mulatta]

Chip Fluorescence (max) [3]: 4.044 | Chip Fluorescence (mean) [4]: 1.1677
Sequence: RLFSVCEQEEEIERAP [Seqshuffled_9643]

Chip Fluorescence (max) [7]: 0.8382 | Chip Fluorescence (mean) [8]: -0.2608
Sequence: KEGPISSTVVMEALSI [SeqRBM_843]

Chip Fluorescence (max) [3]: 3.699 | Chip Fluorescence (mean) [4]: 0.5277
Sequence: FFHHGLSCCKARQAEY [Seqrandom_9955]

Chip Fluorescence (max) [11]: 2.815 | Chip Fluorescence (mean) [12]: 0.3496
Sequence: TFWTNPQYRITVTDAD [SeqRBMlowT_620]

Chip Fluorescence (max) [3]: 6.979 | Chip Fluorescence (mean) [4]: 1.446
Sequence: VAQAFNVDGNCTQYWN [Seqrandom_9942]

Chip Fluorescence (max) [9]: -0.6014 | Chip Fluorescence (mean) [10]: -1.251
Sequence: RTNLNPFFFFTSDSKN [SeqRBM_2819]

Chip Fluorescence (max) [1]: 1.442 | Chip Fluorescence (mean) [2]: 0.7319
Sequence: PSLYENALGMEAFTIS [SeqRBMlowT_4846]

Chip Fluorescence (max) [3]: 4.262 | Chip Fluorescence (mean) [4]: 0.2921
Sequence: TFWMNPQYMIKLEEED [SeqCAPN11_Monodelphis_domestica]

Chip Fluorescence (max) [11]: 2.638 | Chip Fluorescence (mean) [12]: 0.5735
Sequence: VSLYEDALGLGQFSLS [SeqRBM_4294]

Chip Fluorescence (max) [1]: 1.378 | Chip Fluorescence (mean) [2]: 0.8819
Sequence: RAYMNPFMTFIDGGHR [SeqRBMlowT_1518]

Chip Fluorescence (max) [5]: 1.157 | Chip Fluorescence (mean) [6]: 0.3599
Sequence: LNLKIPEIDSSDMSAH [SeqFLNA_Erinaceus_europaeus]

Chip Fluorescence (max) [7]: 0.8772 | Chip Fluorescence (mean) [8]: -0.6992
Sequence: PENKFQPFAIKLCVKG [Seqshuffled_5021]
